Measured values as given in article PMC5814754, “Quantitative, Wide-Spectrum Kinase Profiling in Live Cells for Assessing the Effect of Cellular ATP on Target Engagement” (Cell Chemical Biology, 2018).
Each block holds one compound with its values, some of them ahead of it.

Assays:
Experiment in all cases: Apparent affinity (EC50) of energy transfer probes by titration onto live HEK293 cells expressing kinase/Nluc fusions (Table S1)
Assay type in all cases: binding
[1] = molecular target: full-length kinase/Nluc fusion proteins (Homo sapiens, UniProt O43353); conditions: RIPK2 (NP_003812), Nluc orientation N; read-out: Probe EC50
Sequence of full-length kinase/Nluc fusion proteins (Homo sapiens, UniProt O43353) (O43353 whole entry, the tested form may be a part): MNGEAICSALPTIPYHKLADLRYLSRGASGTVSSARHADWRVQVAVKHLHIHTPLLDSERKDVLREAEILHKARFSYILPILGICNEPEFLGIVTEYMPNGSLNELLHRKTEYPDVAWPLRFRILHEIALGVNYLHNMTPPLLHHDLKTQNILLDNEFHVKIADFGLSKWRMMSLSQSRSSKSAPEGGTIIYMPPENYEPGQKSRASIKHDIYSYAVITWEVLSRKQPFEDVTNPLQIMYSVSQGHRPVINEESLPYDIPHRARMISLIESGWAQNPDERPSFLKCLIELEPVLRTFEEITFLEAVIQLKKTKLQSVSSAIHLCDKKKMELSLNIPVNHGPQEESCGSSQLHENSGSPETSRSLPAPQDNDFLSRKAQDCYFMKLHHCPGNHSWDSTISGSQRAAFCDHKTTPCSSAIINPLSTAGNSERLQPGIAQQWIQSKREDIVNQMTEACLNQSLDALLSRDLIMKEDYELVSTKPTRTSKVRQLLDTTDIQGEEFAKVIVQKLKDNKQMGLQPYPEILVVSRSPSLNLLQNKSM

[2] = molecular target: full-length kinase/Nluc fusion proteins (Homo sapiens, UniProt P54764); conditions: EPHA4, Nluc C; read-out: Probe EC50
[3] = molecular target: full-length kinase/Nluc fusion proteins (Homo sapiens, UniProt P54753); conditions: EPHB3, Nluc C; read-out: Probe EC50
[4] = molecular target: full-length kinase/Nluc fusion proteins (Homo sapiens, UniProt P00519); conditions: ABL1, Nluc N; read-out: Probe EC50
Sequence of full-length kinase/Nluc fusion proteins (Homo sapiens, UniProt P00519) (P00519 whole entry, the tested form may be a part): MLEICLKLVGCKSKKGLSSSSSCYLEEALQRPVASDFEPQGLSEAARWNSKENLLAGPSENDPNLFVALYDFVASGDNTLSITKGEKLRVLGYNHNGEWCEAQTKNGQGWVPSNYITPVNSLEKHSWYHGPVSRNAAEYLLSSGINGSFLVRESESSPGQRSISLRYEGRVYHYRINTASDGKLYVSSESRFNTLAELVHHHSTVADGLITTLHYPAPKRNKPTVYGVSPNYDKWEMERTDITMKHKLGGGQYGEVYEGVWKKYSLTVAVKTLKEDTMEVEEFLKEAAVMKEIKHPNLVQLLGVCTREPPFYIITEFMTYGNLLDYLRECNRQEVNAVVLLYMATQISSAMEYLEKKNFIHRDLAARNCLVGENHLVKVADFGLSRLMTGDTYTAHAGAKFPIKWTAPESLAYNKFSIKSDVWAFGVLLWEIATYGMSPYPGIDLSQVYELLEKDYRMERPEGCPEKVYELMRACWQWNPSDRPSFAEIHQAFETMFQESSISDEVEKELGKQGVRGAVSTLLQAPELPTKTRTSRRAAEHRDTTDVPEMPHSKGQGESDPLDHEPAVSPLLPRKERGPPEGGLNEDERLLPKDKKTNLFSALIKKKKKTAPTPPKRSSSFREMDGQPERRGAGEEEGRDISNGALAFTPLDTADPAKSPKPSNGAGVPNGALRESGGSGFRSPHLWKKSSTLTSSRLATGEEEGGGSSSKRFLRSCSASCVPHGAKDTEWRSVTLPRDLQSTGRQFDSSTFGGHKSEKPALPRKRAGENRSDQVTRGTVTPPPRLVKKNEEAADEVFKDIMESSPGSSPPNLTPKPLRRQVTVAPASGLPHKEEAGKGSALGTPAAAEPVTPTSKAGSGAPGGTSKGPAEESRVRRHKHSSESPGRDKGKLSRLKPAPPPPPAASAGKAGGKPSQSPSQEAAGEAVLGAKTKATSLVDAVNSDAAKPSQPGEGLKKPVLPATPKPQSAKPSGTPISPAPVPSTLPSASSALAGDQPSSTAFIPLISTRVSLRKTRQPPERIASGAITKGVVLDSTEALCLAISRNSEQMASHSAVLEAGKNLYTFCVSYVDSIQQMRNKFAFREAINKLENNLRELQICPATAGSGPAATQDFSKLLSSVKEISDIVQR

[5] = molecular target: full-length kinase/Nluc fusion proteins (Homo sapiens, UniProt P42685); conditions: FRK, Nluc C; read-out: Probe EC50
[6] = molecular target: full-length kinase/Nluc fusion proteins (Homo sapiens, UniProt P29317); conditions: EPHA2, Nluc C; read-out: Probe EC50
[7] = molecular target: full-length kinase/Nluc fusion proteins (Homo sapiens, UniProt Q13882); conditions: PTK6, Nluc C; read-out: Probe EC50
[8] = molecular target: full-length kinase/Nluc fusion proteins (Homo sapiens, UniProt P51813); conditions: BMX, Nluc C; read-out: Probe EC50
[9] = molecular target: full-length kinase/Nluc fusion proteins (Homo sapiens, UniProt P41240); conditions: CSK, Nluc C; read-out: Probe EC50
[10] = molecular target: full-length kinase/Nluc fusion proteins (Homo sapiens, UniProt P07947); conditions: YES1 (NP_005424), Nluc orientation C; read-out: Probe EC50
[11] = molecular target: full-length kinase/Nluc fusion proteins (Homo sapiens, UniProt P53779); conditions: JNK3, Nluc C; read-out: Probe EC50
[12] = molecular target: full-length kinase/Nluc fusion proteins (Homo sapiens, UniProt Q06418); conditions: TYRO3 (NP_006284), Nluc orientation C; read-out: Probe EC50
[13] = molecular target: full-length kinase/Nluc fusion proteins (Homo sapiens, UniProt Q9UHD2); conditions: TBK1 (NP_037386), Nluc orientation N; read-out: Probe EC50
[14] = molecular target: full-length kinase/Nluc fusion proteins (Homo sapiens, UniProt Q9H1R3); conditions: MYLK2, Nluc C; read-out: Probe EC50
[15] = molecular target: full-length kinase/Nluc fusion proteins (Homo sapiens, UniProt P51812); conditions: RPS6KA3 (NP_004577), Nluc orientation N; read-out: Probe EC50
[16] = molecular target: full-length kinase/Nluc fusion proteins (Homo sapiens, UniProt O14965); conditions: AURKA, Nluc C; read-out: Probe EC50
[17] = molecular target: full-length kinase/Nluc fusion proteins (Homo sapiens, UniProt Q9UQB9); conditions: AURKC, Nluc C; read-out: Probe EC50
[18] = molecular target: full-length kinase/Nluc fusion proteins (Homo sapiens, UniProt P31749); conditions: AKT1, Nluc C; read-out: Probe EC50
[19] = molecular target: full-length kinase/Nluc fusion proteins (Homo sapiens, UniProt P17612); conditions: PRKACA, Nluc C; read-out: Probe EC50
[20] = molecular target: full-length kinase/Nluc fusion proteins (Homo sapiens, UniProt Q9Y6R4); conditions: MAP3K4, Nluc C; read-out: Probe EC50
Sequence of full-length kinase/Nluc fusion proteins (Homo sapiens, UniProt Q9Y6R4) (Q9Y6R4 whole entry, the tested form may be a part): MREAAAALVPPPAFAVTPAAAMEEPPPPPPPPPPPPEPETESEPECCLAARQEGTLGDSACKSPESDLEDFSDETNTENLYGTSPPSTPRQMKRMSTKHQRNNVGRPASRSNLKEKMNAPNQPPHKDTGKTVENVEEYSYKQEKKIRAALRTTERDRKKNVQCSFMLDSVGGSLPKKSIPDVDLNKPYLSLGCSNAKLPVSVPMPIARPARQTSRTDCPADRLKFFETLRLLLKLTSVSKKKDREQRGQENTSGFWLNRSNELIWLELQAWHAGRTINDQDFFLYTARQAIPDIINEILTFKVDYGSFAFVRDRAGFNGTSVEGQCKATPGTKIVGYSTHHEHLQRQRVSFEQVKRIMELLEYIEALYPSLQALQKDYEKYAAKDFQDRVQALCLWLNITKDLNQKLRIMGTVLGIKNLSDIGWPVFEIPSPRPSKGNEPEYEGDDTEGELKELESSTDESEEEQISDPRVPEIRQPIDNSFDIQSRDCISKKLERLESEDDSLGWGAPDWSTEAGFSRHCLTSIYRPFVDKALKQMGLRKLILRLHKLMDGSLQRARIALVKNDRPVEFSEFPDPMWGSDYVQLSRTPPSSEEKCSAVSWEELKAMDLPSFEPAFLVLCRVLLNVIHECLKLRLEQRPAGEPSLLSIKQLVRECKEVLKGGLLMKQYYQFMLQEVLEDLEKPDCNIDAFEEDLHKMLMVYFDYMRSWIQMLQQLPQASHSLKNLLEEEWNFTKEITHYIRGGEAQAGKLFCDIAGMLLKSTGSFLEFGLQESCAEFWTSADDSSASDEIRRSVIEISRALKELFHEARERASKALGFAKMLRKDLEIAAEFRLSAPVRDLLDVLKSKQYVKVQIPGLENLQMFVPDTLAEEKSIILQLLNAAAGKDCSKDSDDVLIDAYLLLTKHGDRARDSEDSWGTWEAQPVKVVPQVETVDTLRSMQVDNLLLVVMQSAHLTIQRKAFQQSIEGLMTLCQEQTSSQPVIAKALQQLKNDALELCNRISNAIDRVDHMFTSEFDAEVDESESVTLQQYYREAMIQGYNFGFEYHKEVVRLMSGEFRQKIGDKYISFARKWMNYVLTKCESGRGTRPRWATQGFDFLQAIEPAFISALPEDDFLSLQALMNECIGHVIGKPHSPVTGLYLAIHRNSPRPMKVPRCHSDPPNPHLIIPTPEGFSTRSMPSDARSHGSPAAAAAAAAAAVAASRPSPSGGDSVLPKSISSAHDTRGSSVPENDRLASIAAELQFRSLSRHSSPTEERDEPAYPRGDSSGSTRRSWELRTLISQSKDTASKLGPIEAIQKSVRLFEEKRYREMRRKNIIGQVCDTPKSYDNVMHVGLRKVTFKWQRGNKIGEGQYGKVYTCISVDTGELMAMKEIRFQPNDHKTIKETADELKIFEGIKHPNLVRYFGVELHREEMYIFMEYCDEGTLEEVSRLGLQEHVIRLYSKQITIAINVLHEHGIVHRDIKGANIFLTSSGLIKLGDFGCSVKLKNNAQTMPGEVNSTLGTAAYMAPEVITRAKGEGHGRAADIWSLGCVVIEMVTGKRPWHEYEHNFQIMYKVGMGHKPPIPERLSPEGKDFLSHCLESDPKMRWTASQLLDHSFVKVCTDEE

[21] = molecular target: full-length kinase/Nluc fusion proteins (Homo sapiens, UniProt P21802); conditions: FGFR2, Nluc C; read-out: Probe EC50
[22] = molecular target: full-length kinase/Nluc fusion proteins (Homo sapiens, UniProt Q02156); conditions: PRKCE, Nluc C; read-out: Probe EC50
[23] = molecular target: full-length kinase/Nluc fusion proteins (Homo sapiens, UniProt Q16620); conditions: NTRK2, Nluc C; read-out: Probe EC50
[24] = molecular target: full-length kinase/Nluc fusion proteins (Homo sapiens, UniProt P54646); conditions: PRKAA2, Nluc N; read-out: Probe EC50
[25] = molecular target: full-length kinase/Nluc fusion proteins (Homo sapiens, UniProt Q92630); conditions: DYRK2, Nluc C; read-out: Probe EC50
[26] = molecular target: full-length kinase/Nluc fusion proteins (Homo sapiens, UniProt Q96PY6); conditions: NEK1, Nluc N; read-out: Probe EC50
[27] = molecular target: full-length kinase/Nluc fusion proteins (Homo sapiens, UniProt P33981); conditions: TTK (NP_003309), Nluc orientation C; read-out: Probe EC50
Sequence of full-length kinase/Nluc fusion proteins (Homo sapiens, UniProt P33981) (P33981 whole entry, the tested form may be a part): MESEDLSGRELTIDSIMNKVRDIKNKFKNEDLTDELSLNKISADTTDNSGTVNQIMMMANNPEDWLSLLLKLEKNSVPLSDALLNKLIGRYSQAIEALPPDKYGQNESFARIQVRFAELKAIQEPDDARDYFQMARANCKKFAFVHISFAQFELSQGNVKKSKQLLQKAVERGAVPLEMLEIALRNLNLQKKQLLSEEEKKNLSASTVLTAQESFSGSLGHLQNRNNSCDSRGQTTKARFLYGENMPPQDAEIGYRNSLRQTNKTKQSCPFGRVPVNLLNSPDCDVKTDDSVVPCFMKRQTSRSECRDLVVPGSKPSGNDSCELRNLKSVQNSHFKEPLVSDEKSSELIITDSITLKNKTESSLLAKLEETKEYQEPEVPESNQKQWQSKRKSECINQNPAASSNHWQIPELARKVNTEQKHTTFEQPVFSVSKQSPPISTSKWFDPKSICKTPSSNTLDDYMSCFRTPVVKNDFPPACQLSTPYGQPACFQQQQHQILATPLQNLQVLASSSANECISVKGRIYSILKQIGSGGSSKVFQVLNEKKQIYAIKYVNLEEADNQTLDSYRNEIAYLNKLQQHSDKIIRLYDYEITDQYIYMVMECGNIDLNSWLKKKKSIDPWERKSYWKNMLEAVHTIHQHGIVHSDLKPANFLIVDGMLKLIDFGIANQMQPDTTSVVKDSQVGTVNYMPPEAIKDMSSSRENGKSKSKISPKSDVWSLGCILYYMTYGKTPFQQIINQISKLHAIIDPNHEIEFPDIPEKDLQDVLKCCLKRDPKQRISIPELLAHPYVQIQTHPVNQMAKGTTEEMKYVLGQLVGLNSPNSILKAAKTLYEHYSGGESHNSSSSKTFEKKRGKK

[28] = molecular target: full-length kinase/Nluc fusion proteins (Homo sapiens, UniProt Q9Y4K4); conditions: MAP4K5, Nluc C; read-out: Probe EC50
[29] = molecular target: full-length kinase/Nluc fusion proteins (Homo sapiens, UniProt Q16584); conditions: MAP3K11, Nluc N; read-out: Probe EC50
Sequence of full-length kinase/Nluc fusion proteins (Homo sapiens, UniProt Q16584) (Q16584 whole entry, the tested form may be a part): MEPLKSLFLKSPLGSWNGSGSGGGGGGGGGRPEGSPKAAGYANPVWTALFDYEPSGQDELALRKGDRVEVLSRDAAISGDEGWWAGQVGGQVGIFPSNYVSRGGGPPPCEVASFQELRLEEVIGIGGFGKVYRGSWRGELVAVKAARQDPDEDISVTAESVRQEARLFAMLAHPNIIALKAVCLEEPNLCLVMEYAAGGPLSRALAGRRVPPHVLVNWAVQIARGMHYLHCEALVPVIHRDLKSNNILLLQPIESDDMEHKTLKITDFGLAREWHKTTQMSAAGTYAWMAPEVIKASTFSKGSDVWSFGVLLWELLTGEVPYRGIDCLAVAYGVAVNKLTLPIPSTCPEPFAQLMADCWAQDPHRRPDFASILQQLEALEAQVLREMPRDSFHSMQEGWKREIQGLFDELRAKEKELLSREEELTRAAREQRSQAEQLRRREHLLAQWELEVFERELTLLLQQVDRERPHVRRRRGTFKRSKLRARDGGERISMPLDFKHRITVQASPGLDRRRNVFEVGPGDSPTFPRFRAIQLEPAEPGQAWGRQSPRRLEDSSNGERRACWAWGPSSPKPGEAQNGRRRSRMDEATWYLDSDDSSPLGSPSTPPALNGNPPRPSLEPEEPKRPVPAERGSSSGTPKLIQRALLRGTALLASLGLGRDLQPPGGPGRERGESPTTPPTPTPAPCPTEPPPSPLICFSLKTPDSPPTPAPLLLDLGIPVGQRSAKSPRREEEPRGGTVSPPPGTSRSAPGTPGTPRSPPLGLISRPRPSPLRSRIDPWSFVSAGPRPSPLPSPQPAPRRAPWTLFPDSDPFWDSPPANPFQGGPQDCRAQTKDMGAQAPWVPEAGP

[30] = molecular target: full-length kinase/Nluc fusion proteins (Homo sapiens, UniProt Q14289); conditions: PTK2B, Nluc C; read-out: Probe EC50
[31] = molecular target: full-length kinase/Nluc fusion proteins (Homo sapiens, UniProt P51956); conditions: NEK3, Nluc N; read-out: Probe EC50
[32] = molecular target: full-length kinase/Nluc fusion proteins (Homo sapiens, UniProt Q13627); conditions: DYRK1A, Nluc N; read-out: Probe EC50

EC50 [1]: 200 nM
EC50 [2]: 40 nM
EC50 [3]: 200 nM
EC50 [4]: 200 nM
EC50 [5]: 400 nM
EC50 [6]: 60 nM
EC50 [7]: 200 nM
EC50 [8]: 300 nM
EC50 [9]: > 1000 nM
EC50 [10]: 600 nM
Compound: Cc1nc(Nc2ncc(C(=O)Nc3c(C)cccc3Cl)s2)cc(N2CCN(CCOCCNC(=O)CCc3ccc4n3[B-](F)(F)[N+]3=C(c5ccc[nH]5)C=CC3=C4)CC2)n1 [Energy Transfer Probe 6, 2-((6-(4-(2-(2-aminoethoxy)ethyl)piperazin-1-yl)-2-methylpyrimidin-4-yl)amino)-N-(2-chloro-6-methylphenyl)thiazole-5-carboxamide-NanoBRET 590]

EC50 [11]: > 1000 nM
EC50 [12]: > 1000 nM
EC50 [13]: 400 nM
EC50 [14]: > 1000 nM
EC50 [15]: 200 nM
EC50 [16]: 40 nM
EC50 [17]: 20 nM
EC50 [18]: > 1000 nM
EC50 [19]: > 1000 nM
EC50 [20]: > 1000 nM
EC50 [21]: 600 nM
EC50 [22]: > 1000 nM
EC50 [23]: 500 nM
EC50 [24]: > 1000 nM
EC50 [25]: > 1000 nM
EC50 [26]: > 1000 nM
EC50 [27]: 300 nM
EC50 [28]: > 1000 nM
EC50 [29]: > 1000 nM
EC50 [30]: 300 nM
EC50 [31]: > 1000 nM
EC50 [32]: > 1000 nM
Compound: CNC(=O)c1ccccc1Nc1nc(Nc2ccc(N3CCN(C(=O)CCOCCOCCOCCOCCNC(=O)CCc4ccc5n4[B-](F)(F)[N+]4=C(c6ccc[nH]6)C=CC4=C5)CC3)cc2)ncc1Cl [Energy Transfer Probe 5, 2-((2-((4-(4-(1-amino-3,6,9,12-tetraoxapentadecan-15-oyl)piperazin-1-yl)phenyl)amino)-5-chloropyrimidin-4-yl)amino)-N-methylbenzamide-NanoBRET 590]
